Patent US10265298B2, “Method of increasing the bioavailability of silybin” (Macau University of Science and Technology, priority 2017, dated 2019)

Tested on: not listed separately
Test: Bidirectional transport across Caco-2 cell monolayers
Settings: human, Caco-2
Method: (§1) Human colorectal adenocarcinoma-2 (Caco-2) cells was obtained from American Type Culture Collection (Manassas, Va.) and frozen at −80° C. For transport study, cells were cultured at 37° C./5% CO2 in Dulbecco's modified Eagle's medium supplemented with 10% fetal bovine serum, 1% nonessential amino acids, and 1% penicillin-streptomycin. […] The culture medium was changed 24 hours after seeding to remove cell debris and dead cells; after which the medium was changed on alternate days. Monolayers were used for transport assays between 21 and 23 days for Caco-2 cells. Prior to transport study, cell monolayers were certified based on internal criteria on transepithelial electrical resistance (TEER) values.
(§2) Prior to transport study, cell monolayers were certified based on our internal criteria on transepithelial electrical resistance (TEER) values, and only monolayers that met the acceptance criteria (transepithelial electrical resistance >500 Ω·cm^2 for Caco-2 cells and >200 Ω·cm^2 for MDCK cells) were selected for transport studies.
(§3) Bidirectional transport assays in human colorectal adenocarcinoma 2 (Caco-2) and Madin-Darby canine kidney II (MDCK II) was carried out by dosing substrates in assay buffer to either the apical chamber (A-to-B) or the basolateral chamber (B-to-A); cells were then incubated at 37° C. with shaking at 50 rotations per minute (rpm), and 100 μl samples were collected at 30, 60, 90, 120 and 180 minutes from the basolateral chamber to study the drug transport of AP to BL, or apical chamber to study the drug transport of BL to AP. Cell monolayers were then washed twice with ice-cold assay buffer and lysed with methanol on ice for 10 minutes. For inhibition studies, Caco-2 or MDCK II cell monolayers were pre-incubated with an inhibitor in both apical and basolateral chambers for 30 minutes, and bidirectional transport of 10 μM silybin was conducted in the absence (control) or presence of the inhibitor in both chambers. […] For fluorescence intensity detection, samples collected from AP or BL side were immediately detected in 96 well black plate by Microplate ultraviolet-visible spectroscopy (UV/VIS) spectrophotometer (TECAN infinite M200 PRO, Männedorf, Switzerland). In all cases, each determination was performed in triplicate.
(§4) The apparent permeability coefficients (Papp) were calculated as Papp=dQ/dt×1/(C“0”A) where dQ/dt (mM/sec) is the rate of permeation of the drug across the cells, C0 (millimolar (mM)) is the donor compartment concentration at time zero and A (cm^2) is the area of the cell monolayer. C0 is obtained from analysis of the dosing solution at the start experiment. Efflux Ratio (ER)=Papp (B to A)/Papp (A to B), while Papp (B−A) is the Papp value measured in the B to A direction, and Papp (A−B) is the Papp value measured in the A to B direction. 1.5 Preparation of Rat Sandwich-Cultured Hepatocytes

Row | Papp at 180 min [×10⁻⁶ cm/s] | Molecule
1 | 13 | O=c1c(-c2ccc(O)cc2)coc2cc(O)cc(O)c12 [genistein]

Tested on: Caco-2 cell monolayers
Test: as above
Settings: Ko143 at 0.5 μM (BCRP inhibitor); quinidine at 20 μM (P-gp inhibitor)
Method: as §1, §2, §3, §4

Row | Molecule | effect of efflux transporter inhibitor on efflux/absorption of silybin
2 | COc1ccc2c3c([nH]c2c1)[C@H](CC(C)C)N1C(=O)[C@H](CCC(=O)OC(C)(C)C)NC(=O)[C@@H]1C3 [Ko143, (3S,6S,12aS)-1,2,3,4,6,7,12,12a-octahydro-9-methoxy-6-(2-methylpropyl)-1,4-dioxo-pyrazino[1′,2′:1,6]pyrido[3,4-b]indole-3-propanoic acid 1,1-dimethylethyl ester] | inhibited the efflux ratio of silybin

Tested on: Caco-2 cells
Test: Glucuronidation of silybin in Caco-2 cells (LC-MS peak area of silybin glucuronides)
Type: in vitro ADME, human
Settings: Homo sapiens, Caco-2; silybin 10 μM, test compound 20 μM co-incubation; read-out: inhibition on the glucuronide conjugation of silybin
Method: The analysis of silybin and total concentrations of glucuronides and sulfates was performed on an Agilent HP 1100 LC-MS system (Agilent, CA). A Waters ACQUITY UPLC® BEH C18 Column (1.7 μm, 2.1×50 mm, Waters Corp., Ireland) was used for detection with a C18 Security Guard cartridge (4×2.0 mm i.d., Phenomenex, Torrance, Calif.). Silybin A and silybin B were well separated using optimized gradient elution with methanol (mobile phase B) and 0.1% formic acid in water (mobile phase A) as mobile phase at a flow rate of 0.4 ml/min with a run time of 10 minutes. The gradient employed was as follows (time: mobile phase B percentage): 0 min: 25%, 6 minutes: 40%, 6.5 minutes: 25%.
MS parameters including: capillary voltage, −4000 V; nebulizer pressure, 40 pounds per square inch (psi); drying gas, 9 liters per minute (L/min); drying gas temperature, 325° C.; fragment voltage, 35 volts; dwell time, 200 milliseconds (ms); scan mode, selective ion monitoring (SIM) with [M-H]− for silybin (mass-to-charge ratio (m/z) 481), mono-glucuronide (m/z 657), and NG (m/z 271), respectively. LC-MS data were obtained by Agilent ChemStation Software.
Silybin is primarily metabolized to glucuronide (about 55%) and sulfate (about 28%) conjugates in human plasma after oral administration. To examine whether the co-incubation of flavonoids could affect the conjugation of silybin, the peak area of silybin glucuronides was measured by LC-MS (FIG. 6). Identification of glucuronides in the samples was based on their MS in-source fragmentations (m/z 657).

Row | Molecule | inhibition at 20 µM [%]
3 | O=c1cc(-c2ccccc2)oc2cc(O)cc(O)c12 [chrysin] | > 50
4 | COc1cc(-c2oc3cc(O)cc(O)c3c(=O)c2O)ccc1O [isorhamnetin] | > 50
5 | O=C1c2c(O)cc(O)cc2O[C@H](c2cc(O)c(O)c(O)c2)[C@H]1O [dihydromyricetin] | > 50
6 | O=C(O)[C@H]1O[C@@H](Oc2cc3oc(-c4ccccc4)cc(=O)c3c(O)c2O)[C@H](O)[C@@H](O)[C@@H]1O [baicalin] | > 50
7 | COc1ccc(-c2oc3cc(O)cc(O)c3c(=O)c2O)cc1 [kaempferide] | > 50
8 | O=c1c(O)c(-c2ccc(O)cc2)oc2cc(O)cc(O)c12 [kaempferol] | > 50
9 | O=c1c(O)c(-c2ccc(O)c(O)c2)oc2cc(O)cc(O)c12 [quercetin] | > 50
10 | O=c1c(O)c(-c2ccc(O)c(O)c2)oc2cc(O)ccc12 [fisetin] | > 50
11 | COc1cc(/C=C/C(=O)CC(=O)/C=C/c2ccc(O)c(OC)c2)ccc1O [curcumin] | > 50

Same assay, conditions: silybin 10 μM, test compound 20 μM co-incubation

Row | Molecule | effect on glucuronide metabolites / glucuronide conjugation of silybin
12 | COc1ccc2c(c[n+](C)c3c4cc5c(cc4ccc23)OCO5)c1OC [chelerythrine] | did not significantly inhibit the conjugation
13 | O=c1cc(-c2ccc(O)c(O)c2)oc2cc(O)cc(O)c12 [luteolin] | almost undetected
14 | O=C(O[C@@H]1Cc2c(O)cc(O)cc2O[C@@H]1c1ccc(O)c(O)c1)c1cc(O)c(O)c(O)c1 [(−)-ECG] | did not significantly inhibit the conjugation
15 | O=c1c(O)c(-c2ccc(O)cc2O)oc2cc(O)cc(O)c12 [morin] | almost undetected
16 | O=c1c(O)c(-c2ccccc2)oc2cc(O)cc(O)c12 [galangin] | almost undetected
17 | Oc1ccc(C=Cc2cc(O)cc(O)c2)cc1 [resveratrol] | almost undetected
18 | COc1ccc(-c2cc(=O)c3c(O)cc(O)cc3o2)cc1O [diosmetin] | almost undetected
19 | CN(C)C(=O)CCSC(SCCC(=O)[O-])c1cccc(/C=C/c2ccc3ccc(Cl)cc3n2)c1.[Na+] (centres unmarked) [MK571, (E)-3-[[[3-[2-(7-chloro-2-quinolinyl)ethenyl]phenyl][[3-(dimethylamino)-3-oxopropyl]thio]methyl]thio]-propanoic acid, sodium salt] | almost undetected
20 | COc1ccc([C@@H]2CC(=O)c3c(O)cc(O[C@@H]4O[C@H](CO[C@@H]5O[C@@H](C)[C@H](O)[C@@H](O)[C@H]5O)[C@@H](O)[C@H](O)[C@H]4O)cc3O2)cc1O [hesperidin] | did not significantly inhibit the conjugation

Tested on: not listed separately
Test: in vitro
Type: in vitro ADME, rat
Settings: male, Sprague Dawley, rat
Method: Sandwich-cultured rat hepatocytes (SCHs) were established according to previously described methods with minor modifications. Primary rat hepatocytes were isolated from male Sprague Dawley® (SD) rats (220-270 g) using a collagenase perfusion as described previously and plated at a density of 7.4×10^5 cells/2 ml/well onto six-well BioCoat plates. Approximately 24 hours later, hepatocytes were overlaid with 2 ml of 0.25 mg/ml BD Matrigel basement membrane matrix in Dulbecco's modified Eagle medium (DMEM) containing 1% volume by volume percentage (v/v) insulin/transferrin/selenium culture supplement, […] dexamethasone, 2 mM L-glutamine, 1% (v/v) minimum essential medium nonessential amino acids, 1% penicillin-streptomycin. Hepatocytes were cultured for 4 days to allow extensive formation of canalicular networks between cells before experimentation and the medium was changed daily.
Sandwich-cultured hepatocytes (SCHs) were pre-incubated in 2 milliliters (ml) of warm Hank's Balanced Salt Solution (HBSS) with or without Ca^2+ at 37° C. for 15 minutes; the tight junctions of the bile canaliculi open temporally after exposure to HBSS without Ca^2+. Subsequently, cells were incubated at 37° C. for 20 minutes with 1.5 ml of standard HBSS containing silybin (10 μM), or MK 571 (50 μM) as a positive control, or baicalein (25, 15.8, 5, 1.58, 0.5, 0.16 μM), or tangeretin (25, 15.8, 5, 1.58, 0.5 μM). After 20 min, cells were washed three times with ice-cold standard HBSS. The cell samples were lysed by sonication in 1 ml of water for 5 seconds with the ultrasonic cell disruption system (SONICS & […], INC., Newtown, Conn., USA). Conjugated silybin and unconjugated (free) silybin were quantified by high-performance liquid chromatography-tandem mass spectrometry (HPLC-MS/MS). Transport function was normalized to the protein content of the hepatocytes which was evaluated by bicinchoninic acid (BCA) protein assay (Pierce Chemical, Rockford, Ill.). The biliary excretion index (BEI; %) and in vitro biliary clearance (Clbiliary; ml/min/kg) were calculated by using B-CLEAR technology (Qualyst, Inc., Research Triangle Park, N.C.) based on the following equations: […]

Row | inhibition at 20 min, 50 μM [%] | Molecule
21 | 100 | CN(C)C(=O)CCSC(SCCC(=O)[O-])c1cccc(/C=C/c2ccc3ccc(Cl)cc3n2)c1.[Na+] (centres unmarked) [MK571, (E)-3-[[[3-[2-(7-chloro-2-quinolinyl)ethenyl]phenyl][[3-(dimethylamino)-3-oxopropyl]thio]methyl]thio]-propanoic acid, sodium salt]

Biological target: MRP2 (Homo sapiens, UniProt Q92887)
Sequence (Q92887 whole entry): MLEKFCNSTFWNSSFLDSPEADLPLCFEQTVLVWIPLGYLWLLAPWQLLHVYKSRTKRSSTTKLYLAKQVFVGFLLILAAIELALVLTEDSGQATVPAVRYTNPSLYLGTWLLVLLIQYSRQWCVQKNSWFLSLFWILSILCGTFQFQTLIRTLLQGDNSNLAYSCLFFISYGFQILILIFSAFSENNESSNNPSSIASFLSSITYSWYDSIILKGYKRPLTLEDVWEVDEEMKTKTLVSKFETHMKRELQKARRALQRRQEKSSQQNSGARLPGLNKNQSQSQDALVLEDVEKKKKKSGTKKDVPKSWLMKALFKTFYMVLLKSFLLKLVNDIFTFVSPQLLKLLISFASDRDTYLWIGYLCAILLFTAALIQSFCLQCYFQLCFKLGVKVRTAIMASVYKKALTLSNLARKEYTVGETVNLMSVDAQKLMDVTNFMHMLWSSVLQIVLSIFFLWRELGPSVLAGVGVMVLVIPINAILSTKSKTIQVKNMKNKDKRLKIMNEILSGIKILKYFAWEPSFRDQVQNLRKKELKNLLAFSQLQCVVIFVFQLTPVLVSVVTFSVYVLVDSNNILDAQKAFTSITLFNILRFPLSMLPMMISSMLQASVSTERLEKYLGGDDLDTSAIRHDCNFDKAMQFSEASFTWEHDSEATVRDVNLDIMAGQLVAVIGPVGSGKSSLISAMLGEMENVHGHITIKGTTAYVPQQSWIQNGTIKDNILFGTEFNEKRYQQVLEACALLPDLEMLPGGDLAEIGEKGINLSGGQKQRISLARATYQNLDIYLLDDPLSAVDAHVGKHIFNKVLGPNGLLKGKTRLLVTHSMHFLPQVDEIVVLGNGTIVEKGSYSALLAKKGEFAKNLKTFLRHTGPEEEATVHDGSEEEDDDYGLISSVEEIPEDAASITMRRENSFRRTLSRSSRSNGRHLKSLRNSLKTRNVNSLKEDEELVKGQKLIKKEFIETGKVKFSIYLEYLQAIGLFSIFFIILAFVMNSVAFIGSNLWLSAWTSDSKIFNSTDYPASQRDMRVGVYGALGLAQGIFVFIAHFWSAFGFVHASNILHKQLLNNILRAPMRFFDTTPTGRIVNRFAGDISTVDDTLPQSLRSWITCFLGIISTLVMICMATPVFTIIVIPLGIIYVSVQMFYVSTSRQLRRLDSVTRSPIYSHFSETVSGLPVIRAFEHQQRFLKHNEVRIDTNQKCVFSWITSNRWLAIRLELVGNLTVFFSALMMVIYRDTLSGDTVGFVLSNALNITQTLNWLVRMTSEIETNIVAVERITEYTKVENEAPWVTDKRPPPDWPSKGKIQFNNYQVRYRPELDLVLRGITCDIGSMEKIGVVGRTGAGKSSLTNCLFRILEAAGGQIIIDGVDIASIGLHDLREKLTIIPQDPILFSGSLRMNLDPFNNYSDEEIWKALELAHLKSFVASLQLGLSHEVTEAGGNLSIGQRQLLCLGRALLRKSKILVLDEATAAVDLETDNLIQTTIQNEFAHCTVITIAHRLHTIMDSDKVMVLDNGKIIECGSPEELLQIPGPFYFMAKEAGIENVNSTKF
Test: cell-based
Settings: dog, 180 min
Method: (§5) Parental Madin-Darby canine kidney II (MDCKII), multi-drug resistance gene 1-Madin-Darby canine kidney II (MDR1-MDCKII), breast cancer resistance protein-Madin-Darby canine kidney II (BCRP-MDCKII), and multi-drug resistance protein 2-Madin-Darby canine kidney II (MRP2-MDCKII) cells were kindly provided by the Netherlands Cancer Institute (Amsterdam, Netherlands) and frozen at −80° C. The MDCKII cells were cultured at 37° C./5% CO2 in Dulbecco's modified Eagle's medium supplemented with 10% fetal bovine serum, 1% nonessential amino acids, and 2% penicillin-streptomycin. The cells were seeded on transwell inserts (Corning Inc.) at a density of 2.0×10^5 cells/cm^2 and grown for 4-5 days to form confluent monolayers.
as §3, §4
(§6) (*, P<0.05;**, P<0.01; ***, P<0.001 vs absence of any inhibitor. n=3).
as §6

Row | efflux ratio of CDCFDA in the presence of inhibitor | Molecule
22 | 1.11 | CN(C)C(=O)CCSC(SCCC(=O)[O-])c1cccc(/C=C/c2ccc3ccc(Cl)cc3n2)c1.[Na+] (centres unmarked) [MK571, (E)-3-[[[3-[2-(7-chloro-2-quinolinyl)ethenyl]phenyl][[3-(dimethylamino)-3-oxopropyl]thio]methyl]thio]-propanoic acid, sodium salt]

Biological target: T1, BCRP (Homo sapiens, UniProt Q9UNQ0)
T1 sequence (Q9UNQ0 1-655): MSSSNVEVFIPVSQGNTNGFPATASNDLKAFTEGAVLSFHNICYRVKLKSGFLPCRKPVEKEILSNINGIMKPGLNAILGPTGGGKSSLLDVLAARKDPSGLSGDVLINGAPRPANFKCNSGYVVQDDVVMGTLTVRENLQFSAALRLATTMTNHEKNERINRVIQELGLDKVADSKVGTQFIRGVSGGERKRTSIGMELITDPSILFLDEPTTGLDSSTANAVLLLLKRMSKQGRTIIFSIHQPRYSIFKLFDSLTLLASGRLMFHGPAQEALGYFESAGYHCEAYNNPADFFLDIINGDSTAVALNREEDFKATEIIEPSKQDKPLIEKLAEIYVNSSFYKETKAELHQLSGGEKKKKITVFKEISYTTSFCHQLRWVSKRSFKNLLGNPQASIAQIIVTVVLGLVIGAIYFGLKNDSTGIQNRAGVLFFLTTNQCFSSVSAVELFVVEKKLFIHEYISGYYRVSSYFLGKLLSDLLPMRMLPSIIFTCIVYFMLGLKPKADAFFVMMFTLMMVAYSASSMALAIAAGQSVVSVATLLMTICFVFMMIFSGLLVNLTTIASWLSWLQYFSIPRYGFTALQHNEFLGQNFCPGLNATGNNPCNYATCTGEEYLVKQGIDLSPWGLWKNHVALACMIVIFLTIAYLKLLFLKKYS
Test: Inhibition of pheophorbide A (Ph A) efflux in MDCKII-BCRP cell monolayers
Settings: not given
Method: as §5, §3, §4, §6, §6

Row | mean efflux ratio of pheophorbide A (Ph A) | Molecule
23 | 2.82 | pheophorbide A [Ph A]
